In assay [1] the target is PDE (type III) enzyme (obtained from cat heart homogenate). Put plainly: Inhibition of phosphodiesterase (PDE) (type III). The conditions noted are these: 1 µM cAMP, read-out: IC₅₀. The format is biochemical. On the procedure:
Inhibition of Phosphodiesterase (PDE) (Type III)
Following the procedure described in EPA-247,724, IC₅₀ values (the concentration of inhibitor required for 50% inhibition of enzyme activity) were obtained by incubation of a PDE (type III) enzyme (obtained from cat heart homogenate) at 1 µM cAMP and a range of inhibitor concentrations from 0.1 x IC₅₀ to 100 x IC₅₀.

A further assay has as its system Anaesthetised Cats. Kind of assay: Cardiac stimulant activity in vivo (anaesthetised cats). The following applies: anaesthetised cats pretreated with pempidine and propranolol, administered intravenously; for ED50: Felis catus, iv, read-out: ED₅₀ (dose to increase left ventricular dp/dt max by 50%). An excerpt:
Cardiac Stimulant Activity - In vivo (Anaesthetised Cats)
In anaesthetised cats pretreated with a ganglion blocker (pempidine) and propranolol, the compounds of the Examples cause sustained increases in left ventricular dp/dt max (this is an index of left ventricular contractility) when administered intravenously. The dose to increase left ventricular dp/dt max by 50% is given as the ED₅₀.

Take `Cc1nccn1-c1ccc2c(c1)CC1SC(=O)NN=C21` (centres unmarked) [Example 1, 7-(2-Methyl-1H-imidazol-1-yl)-9,9a-dihydroindeno[1,2-e][1,3,4]thiadiazine-2-(3H)-one]: the IC50 in assay [1] came to 0.66 µM. The ED50 in the assay on Anaesthetised Cats is 0.72 µmol/kg.

In the case of `Cc1cn(-c2ccc3c(c2)CC2SC(=O)NN=C32)cn1` (centres unmarked) [Example 2, 7-(4-Methyl-1H-imidazol-1-yl)-9,9a-dihydroindeno[1,2-e][1,3,4] thiadiazine-2-(3H)-one], the IC50 in assay [1] was 0.41 µM. Moreover, in the assay on Anaesthetised Cats, the ED50 turned out to be 0.46 µmol/kg.

Consider Amirone [reference compound], for which the “ED₅₀ (dose to increase left ventricular dp/dt max by 50%)” value in the assay on Anaesthetised Cats was 5.6 µmol/kg.

Values taken from EP0314400A1, “Therapeutically active condensed thiadiazinones” (SMITH KLINE & FRENCH LABORATORIES LIMITED, priority 1987, dated 1989).
